Data from patent publication US11696913B2, “Prolonged ectoparasite-controlling agent for animal” (MITSUI CHEMICALS AGRO, INC., priority 2017, dated 2023).

How the values were obtained:
Ctenocephalides felis [1] = experiment: In vitro contact test with fleas; conditions: read-out: insecticidal activity; for pest or weed control at 0.2 µg/cm2, 0.2 µg/cm2: dose 0.2 μg/cm^2, dead or moribund fleas after 48 h; for pest or weed control at 1 µg/cm2, 1 µg/cm2: dose 1 μg/cm^2, dead or moribund fleas after 48 h; for pest or weed control at 0.04 µg/cm2, 0.04 µg/cm2: dose 0.04 μg/cm^2, dead or moribund fleas after 48 h
How it was run: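 Adult male and female cat fleas (5-10 per tube) placed in glass tubes coated with compound from acetone solution (900 ppm gives 5 μg/cm^2), kept at room temperature and ambient humidity. After 48 h, motionless or uncoordinated fleas scored dead or moribund; activity expressed as % dead or moribund.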

Dermacentor variabilis = experiment: In vitro contact test with adult hard ticks (Dermacentor variabilis); conditions: read-out: acaricidal activity; for pest or weed control at 0.2 µg/cm2, 0.2 µg/cm2: dose 0.2 μg/cm^2, 48 h; for pest or weed control at 1 µg/cm2, 1 µg/cm2: dose 1 μg/cm^2, 48 h
How it was run: (§1)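 Adult R. sanguineus, I. ricinus, D. variabilis or A. americanum nymphs exposed in glass vials coated with compound from acetone (900 ppm gives 5 μg/cm^2). Held 48 h at room temperature (R. sanguineus) or 21° C., 85% rel. hum.; then heated at 45-50° C. ≤5 min, motionless or uncoordinated ticks scored dead/moribund.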

Rhipicephalus sanguineus = experiment: In vitro contact test with adult hard ticks (Rhipicephalus sanguineus); conditions: read-out: acaricidal activity; for pest or weed control at 0.2 µg/cm2, 0.2 µg/cm2: dose 0.2 μg/cm^2, 48 h; for pest or weed control at 1 µg/cm2, 1 µg/cm2: dose 1 μg/cm^2, 48 h
How it was run: as §1

[2] = test system: Rhipicephalus (Boophilus) microplus; experiment: In vitro injection test with Rhipicephalus (Boophilus) microplus (BOOPMI Inj); conditions: 168 h, laid fertile eggs after 7 days, read-out: acaricidal activity; for pest or weed control at 0.00016 mg: dose 0.16 μg/animal injected; for pest or weed control at 0.0008 mg: dose 0.8 μg/animal injected; for pest or weed control at 32 ng: dose 0.032 μg/animal injected
How it was run: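 Test substance in DMSO; 1 μl injected into abdomen of each of 5 engorged adult female ticks, then held at 28° C., 85% rel. hum. Activity scored after 7 days from laying of fertile eggs: 100% = no eggs or all infertile, 0% = all eggs fertile.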

Ctenocephalides felis [3] = experiment: Ctenocephalides felis in-vitro feeding test with fleas (CTECFE oral); conditions: 48 hours, read-out: insecticidal feeding activity; for pest or weed control at 0.16 ppm: dose 0.16 ppm in citrated cattle blood; for pest or weed control at 0.8 ppm: dose 0.8 ppm in citrated cattle blood; for pest or weed control at 4 ppm: dose 4 ppm in citrated cattle blood; for pest or weed control at 0.032 ppm: dose 0.032 ppm in citrated cattle blood
How it was run: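 About 20 unfed adult cat fleas fed through parafilm on citrated cattle blood containing test substance (DMSO solution diluted in blood), held at about 37° C. Kill rate scored after 48 hours, 100% meaning all fleas dead.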

Spodoptera litura = experiment: Insecticidal testing against common cutworm; assay type: in vivo; conditions: foliar, 144 h, concentration 100 ppm, cabbage leaf dip, second-stage larvae, after 6 days, read-out: pesticidal rate
Description: Insecticidal Testing Against Common Cutworm (Spodoptera litura)

Plutella xylostella = experiment: Insecticidal testing against diamondback moth; assay type: in vivo; conditions: foliar, 144 h, concentration 100 ppm, cabbage leaf dip, third-stage larvae, after 6 days, read-out: pesticidal rate
Description: Insecticidal Testing Against Diamondback Moth (Plutella xylostella)

Laodelphax striatellus = experiment: Insecticidal testing against small brown planthopper; assay type: in vivo; conditions: 144 h, concentration 100 ppm, sprayed rice seedlings, after 6 days, read-out: pesticidal rate
Procedure: Insecticidal Testing Against Small Brown Planthopper (Laodelphax striatellus)
An additional test was carried out with 10 small brown planthoppers by preparing an acetone solution of the testing compound diluted to a predetermined concentration, spraying the solution onto rice seedlings and air drying the rice seedlings. The medicament was all used as received. The rice seedlings were placed in a constant-temperature room at 25° C., and the survival rate was investigated after 6 days. The test was carried out by means of one group of 10 pests.

Amblyomma americanum = experiment: In vitro contact test with hard ticks (Amblyomma americanum nymphs); conditions: read-out: acaricidal activity; for pest or weed control at 0.2 µg/cm2, 0.2 µg/cm2: dose 0.2 μg/cm^2, 48 h; for pest or weed control at 1 µg/cm2, 1 µg/cm2: dose 1 μg/cm^2, 48 h
How it was run: as §1

| SMILES | pest or weed control at 0.2 µg/cm2, 0.2 µg/cm2 (Ctenocephalides felis [1]) [%] | pest or weed control at 1 µg/cm2, 1 µg/cm2 (Ctenocephalides felis [1]) [%] | pest or weed control at 0.2 µg/cm2, 0.2 µg/cm2 (Dermacentor variabilis) [%] | pest or weed control at 1 µg/cm2, 1 µg/cm2 (Dermacentor variabilis) [%] | pest or weed control at 0.2 µg/cm2, 0.2 µg/cm2 (Rhipicephalus sanguineus) [%] | pest or weed control at 1 µg/cm2, 1 µg/cm2 (Rhipicephalus sanguineus) [%] | pest or weed control at 0.00016 mg [2] [%] | pest or weed control at 0.0008 mg [2] [%] | pest or weed control at 0.16 ppm (Ctenocephalides felis [3]) [%] | pest or weed control at 0.8 ppm (Ctenocephalides felis [3]) [%] | pest or weed control at 4 ppm (Ctenocephalides felis [3]) [%] | pest or weed control at 100 ppm (Spodoptera litura) [%] | pest or weed control at 100 ppm (Plutella xylostella) [%] | pest or weed control at 100 ppm (Laodelphax striatellus) [%] | pest or weed control at 0.04 µg/cm2, 0.04 µg/cm2 (Ctenocephalides felis [1]) [%] | pest or weed control at 0.0064 ppm (Ctenocephalides felis [3]; dose 0.0064 ppm in citrated cattle blood) [%] | pest or weed control at 0.032 ppm (Ctenocephalides felis [3]) [%] | pest or weed control at 32 ng [2] [%] | pest or weed control at 0.2 µg/cm2, 0.2 µg/cm2 (Amblyomma americanum) [%] | pest or weed control at 1 µg/cm2, 1 µg/cm2 (Amblyomma americanum) [%] |
| --- | --- | --- | --- | --- | --- | --- | --- | --- | --- | --- | --- | --- | --- | --- | --- | --- | --- | --- | --- | --- |
| CN(C(=O)c1ccc(Cl)c(Cl)c1)c1cccc(C(=O)Nc2c(I)cc(C(F)(C(F)(F)F)C(F)(F)F)cc2C(F)(F)F)c1F [Compound 44] | 95 | 95 | 90 | 90 | 90 | 90 | 100 | 100 | 95 | 95 | 95 | ≥ 70 | ≥ 70 | ≥ 70 | – | – | – | – | – | – |
| CSc1ccc(C(=O)N(C)c2cccc(C(=O)Nc3c(I)cc(C(F)(C(F)(F)F)C(F)(F)F)cc3C(F)(F)F)c2F)cc1 [Compound 53] | 95 | 95 | 90 | 90 | – | – | 100 | 100 | 95 | 95 | 95 | ≥ 70 | ≥ 70 | ≥ 70 | 95 | 95 | 95 | – | – | – |
| CN(C(=O)c1ccc([N+](=O)[O-])cc1)c1cccc(C(=O)Nc2c(I)cc(C(F)(C(F)(F)F)C(F)(F)F)cc2C(F)(F)F)c1F [Compound 54] | 95 | 95 | 90 | 90 | 90 | 90 | 100 | 100 | 95 | 95 | 95 | ≥ 70 | ≥ 70 | ≥ 70 | 95 | – | 95 | 100 | – | – |
| Cc1ccc(C(=O)N(C)c2cccc(C(=O)Nc3c(I)cc(C(F)(C(F)(F)F)C(F)(F)F)cc3C(F)(F)F)c2F)cc1 [Compound 58] | 95 | 95 | – | – | – | 90 | 100 | 100 | – | 95 | 95 | ≥ 70 | ≥ 70 | ≥ 70 | 95 | – | – | 100 | 90 | 90 |
| CN(C(=O)c1ccc(C(F)(F)F)cc1)c1cccc(C(=O)Nc2c(I)cc(C(F)(C(F)(F)F)C(F)(F)F)cc2C(F)(F)F)c1F [Compound 59] | 95 | 95 | – | – | 90 | 90 | 100 | 100 | 95 | 95 | 95 | ≥ 70 | ≥ 70 | ≥ 70 | – | – | – | 100 | – | 90 |
| CN(C(=O)c1ccc(F)cc1)c1cccc(C(=O)Nc2c(I)cc(C(F)(C(F)(F)F)C(F)(F)F)cc2[S+]([O-])C(F)(F)F)c1F (stereo not drawn) [Compound 69] | 95 | 95 | – | – | 90 | 90 | 100 | 100 | 95 | 95 | 95 | ≥ 70 | ≥ 70 | ≥ 70 | – | – | 95 | – | 90 | 90 |
| CN(C(=O)c1ccc(Cl)c(Cl)c1)c1cccc(C(=O)Nc2c(I)cc(C(F)(C(F)(F)F)C(F)(F)C(F)(F)F)cc2C(F)(F)F)c1F (stereo not drawn) [Compound 75] | 95 | 95 | – | – | 90 | 90 | 100 | 100 | – | 95 | 95 | ≥ 70 | ≥ 70 | ≥ 70 | – | – | – | – | – | 90 |
| CN(C(=O)c1ccc(C#N)cc1)c1cccc(C(=O)Nc2c(Br)cc(C(F)(C(F)(F)F)C(F)(F)F)cc2OC(F)(F)F)c1F [Compound 88] | 95 | 95 | 90 | 90 | 90 | 90 | 100 | 100 | 95 | 95 | 95 | ≥ 70 | ≥ 70 | ≥ 70 | – | – | 95 | 100 | – | – |
| CN(C(=O)c1ccc(C(F)(F)F)nc1)c1cccc(C(=O)Nc2c(Br)cc(C(F)(C(F)(F)F)C(F)(F)F)cc2OC(F)(F)F)c1F [Compound 98] | 95 | 95 | 90 | 90 | – | – | 100 | 100 | – | 95 | 95 | ≥ 70 | ≥ 70 | ≥ 70 | – | – | – | – | – | – |
| CN(C(=O)c1ccc(C(F)(F)F)nc1)c1cccc(C(=O)Nc2c(I)cc(C(F)(C(F)(F)F)C(F)(F)F)cc2OC(F)F)c1F [Compound 107] | 95 | 95 | 90 | 90 | 90 | – | 100 | 100 | 95 | 95 | 95 | ≥ 70 | ≥ 70 | ≥ 70 | 95 | – | 95 | 100 | – | – |
